# Test results reported in ChEMBL document CHEMBL1201862, “PubChem BioAssay data set” (2004).
#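 Cells were grown in 96-well plates and exposed to each compound for 48 hours at five concentrations; endpoints were interpolated linearly between bracketing concentrations, or set to the highest concentration if not reached. GI50: concentration for 50% inhibition of growth.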 Activity calls are given as the source filed them. No stated cut-off is given here; in the data, active = GI50 up to about 1.1 µM and inactive = higher.
# Experiments:
# Test in all cases: NCI-60 cell line screen, 48 h
# SF-539 = tested on: SF-539
# COLO 205 = tested on: COLO 205
# K562 = tested on: K562
# SR = tested on: SR
# HCT-15 = tested on: HCT-15
# TK-10 = tested on: TK-10
# OVCAR-8 = tested on: OVCAR-8
# MDA-MB-435 = tested on: MDA-MB-435
# UACC-62 = tested on: UACC-62
# A549 = tested on: A549
# EKVX = tested on: EKVX
# OVCAR-4 = tested on: OVCAR-4
# A498 = tested on: A498
# DU-145 = tested on: DU-145
# SK-MEL-2 = tested on: SK-MEL-2
# MOLT-4 = tested on: MOLT-4
# NCI-H23 = tested on: NCI-H23
# HCC 2998 = tested on: HCC 2998
# KM12 = tested on: KM12
# NCI/ADR-RES = tested on: NCI/ADR-RES
# PC-3 = tested on: PC-3
# 786-0 = tested on: 786-0
# HCT-116 = tested on: HCT-116
# RPMI-8226 = tested on: RPMI-8226
# SW-620 = tested on: SW-620
# SK-MEL-28 = tested on: SK-MEL-28
# NCI-H226 = tested on: NCI-H226
# M14 = tested on: M14
# HOP-92 = tested on: HOP-92
# T47D = tested on: T47D
# NCI-H522 = tested on: NCI-H522
# HT-29 = tested on: HT-29
# SN12C = tested on: SN12C
# UO-31 = tested on: UO-31
# MCF7 = tested on: MCF7
# BT-549 = tested on: BT-549
# SF-268 = tested on: SF-268
# HL-60 = tested on: HL-60
# HOP-62 = tested on: HOP-62
# RXF 393 = tested on: RXF 393
# Hs-578T = tested on: Hs-578T
# CAKI-1 = tested on: CAKI-1
# MDA-N = tested on: MDA-N
# SF-295 = tested on: SF-295
# OVCAR-3 = tested on: OVCAR-3
# MDA-MB-231 = tested on: MDA-MB-231
# OVCAR-5 = tested on: OVCAR-5
# ACHN = tested on: ACHN
# SK-MEL-5 = tested on: SK-MEL-5
# SK-OV-3 = tested on: SK-OV-3
# SNB-19 = tested on: SNB-19
# LOX IMVI = tested on: LOX IMVI
# IGROV-1 = tested on: IGROV-1
# U-251 = tested on: U-251
# CCRF-CEM = tested on: CCRF-CEM
# Malme-3M = tested on: Malme-3M
# UACC-257 = tested on: UACC-257
# NCI-H460 = tested on: NCI-H460
# SNB-75 = tested on: SNB-75
structure (smiles),measurement,setting,value
CCOC(=O)c1sc2nc(SC)nc3c2c1NCN3c1ccc2c(c1)OCO2,GI50,SF-539,21.6 µM (inactive)
same,GI50,COLO 205,35.2 µM (inactive)
same,GI50,K562,35 µM (inactive)
same,GI50,SR,39.3 µM (inactive)
same,GI50,HCT-15,52.5 µM
same,GI50,TK-10,17.2 µM (inactive)
same,GI50,OVCAR-8,5.41 µM (inactive)
same,GI50,MDA-MB-435,14.8 µM (inactive)
same,GI50,UACC-62,12.2 µM (inactive)
same,GI50,A549,7.83 µM (inactive)
same,GI50,EKVX,42.2 µM (inactive)
same,GI50,OVCAR-4,5.2 µM (inactive)
same,GI50,A498,33.3 µM (inactive)
same,GI50,DU-145,12.1 µM (inactive)
same,GI50,SK-MEL-2,18.3 µM (inactive)
same,GI50,MOLT-4,26.1 µM (inactive)
same,GI50,NCI-H23,41.9 µM (inactive)
same,GI50,HCC 2998,44.7 µM (inactive)
same,GI50,KM12,> 100 µM (inactive)
same,GI50,NCI/ADR-RES,8.77 µM (inactive)
same,GI50,PC-3,14.3 µM (inactive)
same,GI50,786-0,4.34 µM (inactive)
same,GI50,HCT-116,27.5 µM (inactive)
same,GI50,RPMI-8226,24.2 µM (inactive)
same,GI50,SW-620,17.2 µM (inactive)
same,GI50,SK-MEL-28,8.04 µM (inactive)
same,GI50,NCI-H226,25.8 µM (inactive)
same,GI50,M14,15.5 µM (inactive)
same,GI50,HOP-92,12.5 µM (inactive)
same,GI50,T47D,18.9 µM (inactive)
same,GI50,NCI-H522,31.1 µM (inactive)
same,GI50,HT-29,31.3 µM (inactive)
same,GI50,SN12C,39.4 µM (inactive)
same,GI50,UO-31,15.5 µM (inactive)
same,GI50,MCF7,16.7 µM (inactive)
same,GI50,BT-549,30.1 µM (inactive)
same,GI50,SF-268,3.42 µM (inactive)
same,GI50,HL-60,52 µM (inactive)
same,GI50,HOP-62,5.93 µM (inactive)
same,GI50,RXF 393,3.14 µM (inactive)
same,GI50,Hs-578T,3.58 µM (inactive)
same,GI50,CAKI-1,58.1 µM (inactive)
same,GI50,MDA-N,44.3 µM (inactive)
same,GI50,SF-295,10.9 µM (inactive)
same,GI50,OVCAR-3,10.8 µM (inactive)
same,GI50,MDA-MB-231,13.4 µM (inactive)
same,GI50,OVCAR-5,97.5 µM (inactive)
same,GI50,ACHN,5.94 µM (inactive)
same,GI50,SK-MEL-5,67.5 µM (inactive)
same,GI50,SK-OV-3,10.7 µM (inactive)
same,GI50,SNB-19,11.4 µM (inactive)
same,GI50,LOX IMVI,23.8 µM (inactive)
same,GI50,IGROV-1,26.1 µM (inactive)
same,GI50,U-251,7.03 µM (inactive)
same,GI50,CCRF-CEM,14.6 µM (inactive)
same,GI50,Malme-3M,17.9 µM (inactive)
same,GI50,UACC-257,> 100 µM (inactive)
Cc1ccc2c(ccc3c[n+]4ccccc4c(C)c32)c1.[O-][Cl+3]([O-])([O-])[O-],GI50,SF-539,2.3 µM (inactive)
same,GI50,COLO 205,1.32 µM (inactive)
same,GI50,K562,4.16 µM (inactive)
same,GI50,SR,1.21 µM (inactive)
same,GI50,HCT-15,> 100 µM
same,GI50,TK-10,23.4 µM (inactive)
same,GI50,OVCAR-8,2.29 µM (inactive)
same,GI50,MDA-MB-435,4.73 µM (inactive)
same,GI50,A549,0.373 µM (active)
same,GI50,EKVX,62.4 µM (inactive)
same,GI50,OVCAR-4,2.07 µM (inactive)
same,GI50,A498,13.4 µM (inactive)
same,GI50,DU-145,1.13 µM (inactive)
same,GI50,SK-MEL-2,1.39 µM (inactive)
same,GI50,MOLT-4,7.91 µM (inactive)
same,GI50,NCI-H460,> 100 µM (inactive)
same,GI50,NCI-H23,1.32 µM (inactive)
same,GI50,HCC 2998,2.77 µM (inactive)
same,GI50,KM12,0.39 µM (active)
same,GI50,NCI/ADR-RES,> 100 µM (inactive)
same,GI50,PC-3,0.904 µM (active)
same,GI50,786-0,2.51 µM (inactive)
same,GI50,HCT-116,4.59 µM (inactive)
same,GI50,RPMI-8226,4.15 µM (inactive)
same,GI50,SW-620,0.962 µM (active)
same,GI50,SK-MEL-28,3.17 µM (inactive)
same,GI50,NCI-H226,1.28 µM (inactive)
same,GI50,M14,5.46 µM (inactive)
same,GI50,HOP-92,4.1 µM (inactive)
same,GI50,T47D,2.47 µM (inactive)
same,GI50,NCI-H522,1.59 µM (inactive)
same,GI50,HT-29,6.15 µM (inactive)
same,GI50,SN12C,0.402 µM (active)
same,GI50,UO-31,20.7 µM (inactive)
same,GI50,MCF7,2.89 µM (inactive)
same,GI50,BT-549,1.15 µM (inactive)
same,GI50,SF-268,1.29 µM (inactive)
same,GI50,HL-60,11.7 µM (inactive)
same,GI50,HOP-62,2.44 µM (inactive)
same,GI50,RXF 393,26.4 µM (inactive)
same,GI50,Hs-578T,3.05 µM (inactive)
same,GI50,CAKI-1,0.297 µM (active)
same,GI50,MDA-N,> 100 µM (inactive)
same,GI50,SF-295,1.39 µM (inactive)
same,GI50,OVCAR-3,1.12 µM (active)
same,GI50,MDA-MB-231,6.61 µM (inactive)
same,GI50,OVCAR-5,10.5 µM (inactive)
same,GI50,ACHN,6.7 µM (inactive)
same,GI50,SK-MEL-5,1.1 µM (active)
same,GI50,SK-OV-3,10.3 µM (inactive)
same,GI50,SNB-19,0.451 µM (active)
same,GI50,LOX IMVI,11.7 µM (inactive)
same,GI50,IGROV-1,8.04 µM (inactive)
same,GI50,U-251,0.581 µM (active)
same,GI50,CCRF-CEM,6.64 µM (inactive)
same,GI50,Malme-3M,1.32 µM (inactive)
same,GI50,UACC-257,1.34 µM (inactive)
CCOC(=O)c1ccc(NC(=O)O/N=C(/Cl)CC)cc1,GI50,SF-539,17.6 µM (inactive)
same,GI50,COLO 205,2.41 µM (inactive)
same,GI50,K562,1.94 µM (inactive)
same,GI50,SR,3.57 µM (inactive)
same,GI50,HCT-15,13.5 µM
same,GI50,OVCAR-8,14.9 µM (inactive)
same,GI50,MDA-MB-435,17.7 µM (inactive)
same,GI50,UACC-62,21 µM (inactive)
same,GI50,A549,24.8 µM (inactive)
same,GI50,EKVX,16.1 µM (inactive)
same,GI50,OVCAR-4,5.21 µM (inactive)
same,GI50,A498,15.7 µM (inactive)
same,GI50,DU-145,17.4 µM (inactive)
same,GI50,SNB-75,13.6 µM (inactive)
same,GI50,SK-MEL-2,16.4 µM (inactive)
same,GI50,MOLT-4,2 µM (inactive)
same,GI50,NCI-H460,19.5 µM (inactive)
same,GI50,NCI-H23,17.4 µM (inactive)
same,GI50,HCC 2998,18.1 µM (inactive)
same,GI50,KM12,18.4 µM (inactive)
same,GI50,NCI/ADR-RES,14 µM (inactive)
same,GI50,PC-3,18.8 µM (inactive)
same,GI50,786-0,5.85 µM (inactive)
same,GI50,HCT-116,8.99 µM (inactive)
same,GI50,RPMI-8226,1.99 µM (inactive)
same,GI50,SW-620,1.87 µM (inactive)
same,GI50,SK-MEL-28,16.4 µM (inactive)
same,GI50,NCI-H226,20.9 µM (inactive)
same,GI50,M14,2.14 µM (inactive)
same,GI50,HOP-92,2.75 µM (inactive)
same,GI50,T47D,7.73 µM (inactive)
same,GI50,NCI-H522,2.77 µM (inactive)
same,GI50,HT-29,18.4 µM (inactive)
same,GI50,SN12C,19.9 µM (inactive)
same,GI50,UO-31,17.5 µM (inactive)
same,GI50,MCF7,15 µM (inactive)
same,GI50,BT-549,19.2 µM (inactive)
same,GI50,SF-268,19.2 µM (inactive)
same,GI50,HL-60,2.21 µM (inactive)
same,GI50,HOP-62,20.4 µM (inactive)
same,GI50,RXF 393,16.9 µM (inactive)
same,GI50,Hs-578T,22.8 µM (inactive)
same,GI50,CAKI-1,4.57 µM (inactive)
same,GI50,MDA-N,16.8 µM (inactive)
same,GI50,SF-295,19.5 µM (inactive)
same,GI50,OVCAR-3,1.83 µM (inactive)
same,GI50,MDA-MB-231,19.6 µM (inactive)
same,GI50,OVCAR-5,18.2 µM (inactive)
same,GI50,ACHN,9.18 µM (inactive)
same,GI50,SK-MEL-5,16 µM (inactive)
same,GI50,SK-OV-3,17.9 µM (inactive)
same,GI50,SNB-19,21.3 µM (inactive)
same,GI50,IGROV-1,18.5 µM (inactive)
same,GI50,U-251,17.8 µM (inactive)
same,GI50,CCRF-CEM,1.82 µM (inactive)
same,GI50,Malme-3M,4.56 µM (inactive)
same,GI50,UACC-257,16.1 µM (inactive)
